Assay results from patent publication US7538241B2, “Hsp90 family protein inhibitors” (Kyowa Hakko Kogyo Co., Ltd., priority 2003, dated 2009).

Tests used:
[1] = test system: human chronic myelocytic leukemia-derived K562 cells; test: Cell growth inhibition test with K562 cells (WST-1); format: cell-based; settings: 72 hours, read-out: 50% growth inhibition concentration (GI50)
Protocol: In a 96-well plate (Nunc), human chronic myelocytic leukemia-derived K562 cells were sown in an amount of 1500 cells/well, and pre-incubated in 10% FCS-containing Rosewell Park Memorial Institute's Medium (RPMI) 1640 (Nissui) (incubation medium) in a 5% carbon dioxide incubator at 37° C. for 5 hours. Next, a DMSO solution of a test compound controlled at 10 mmol/L was stepwise diluted with the incubation medium, and added to each well in a total amount of 100 μL/well, and further incubated in the 5% carbon dioxide incubator at 37° C. for 72 hours. After the incubation, WST-1-labeled mixture (Rosh Diagnostic) diluted 2-fold with the incubation medium was added thereto in an amount of 20 μL/well, and incubated in the 5% carbon dioxide incubator at 37° C. for 2 hours. Using a microplate spectrophotometer (Biorad's Model 550), the absorbance at 450 nm and 655 nm of each well was measured. The cell growth inhibition activity of the test compound was indicated by the 50% growth inhibition concentration (GI50) thereof, like in Test Example 2.

[2] = test system: human mammary cancer-derived KPL-4 cells; test: Cell growth inhibition test with KPL-4 cells (WST-1); format: cell-based; settings: KPL4, 72 hours, read-out: 50% growth inhibition concentration (GI50)
Protocol: In a 96-well plate (Nunc), human mammary cancer-derived KPL-4 cells were sown in an amount of 2000 cells/well, and pre-incubated in 10% fetal calf serum (FCS)-containing Dulbecco Modified Eagle Medium (DMEM) (incubation medium) in a 5% carbon dioxide incubator at 37° C. for 24 hours. A dimethylsulfoxide (DMSO) solution of a test compound controlled at 10 mmol/L was stepwise diluted with the incubation medium, and added to each well in a total amount of 100 μL/well, and incubated in the 5% carbon dioxide incubator at 37° C. for 72 hours. After the incubation, WST-1 {4-[3-(4-Iodophenyl)-2-(4-nitrophenyl)-2H-5-tetrazolio]-1,3-benzene disulfonate}-labeled mixture (Rosh Diagnostic) diluted 2-fold with the incubation medium was added thereto in an amount of 20 μL/well, and incubated in the 5% carbon dioxide incubator at 37° C. for 1 hour. Using a microplate spectrophotometer (Biorad's Model 550), the absorbance at 450 nm and 655 nm of each well was measured. The cell growth inhibition activity of the test compound was indicated by the 50% growth inhibition concentration (GI50) thereof. A method of calculating GI50 is described. The absorbance at 655 nm of each well was subtracted from the absorbance at 450 nm thereof to give a value (absorbance difference). The absorbance difference obtained with the cells without being treated with the test compound was taken as 100%, and this was compared with the absorbance difference obtained with the cells treated with the test compound to give the concentration of the compound for 50% cell growth inhibition, and this is referred to as GI50.

Structure (SMILES) | GI50 [1] | GI50 [2]
CCc1c(O)cc(O)c(-c2ccccc2)c1CCC(O)CC(O)CO (stereo not drawn) [Compound 170, 6-Ethyl-4-phenyl-5-(3,5,6-trihydroxyhexyl)benzene-1,3-diol] | ≤ 50 µM | –
CCc1c(O)cc(O)c(-c2ccccc2)c1CC(O)C(O)CO (stereo not drawn) [Compound 180, 6-Ethyl-4-phenyl-5-(2,3,4-trihydroxybutyl)benzene-1,3-diol] | – | ≤ 50 µM
CCc1c(O)cc(O)c(-c2ccccc2)c1CCC(O)C(O)CO (stereo not drawn) [Compound 181, 6-Ethyl-4-phenyl-5-(3,4,5-trihydroxypentyl)benzene-1,3-diol] | – | ≤ 50 µM
CCc1c(O)cc(O)c(-c2ccccc2)c1CC(O)CO (stereo not drawn) [Compound 182, 6-Ethyl-5-(2,3-dihydroxypropyl)-4-phenylbenzene-1,3-diol] | – | ≤ 50 µM
CCc1c(O)cc(O)c(-c2ccccc2)c1CCOC1OC(CO)C(O)C(O)C1O (stereo not drawn) [Compound 183, 6-Ethyl-4-phenyl-5-{2-[3,4,5-trihydroxy-6-(hydroxymethyl)tetrahydropyran-2-yloxy]ethyl}benzene-1,3-diol] | – | ≤ 50 µM
CCc1c(O)cc(O)c(-c2ccccc2)c1CCC(O)C(CO)CO (stereo not drawn) [Compound 185, 6-Ethyl-5-[3,5-dihydroxy-4-(hydroxymethyl)pentyl]-4-phenylbenzene-1,3-diol] | – | ≤ 50 µM
CCc1c(O)cc(O)c(-c2ccccc2)c1CCOCc1cccnc1 [Compound 188, 6-Ethyl-4-phenyl-5-[2-(pyridin-3-ylmethoxy)ethyl]benzene-1,3-diol] | – | ≤ 50 µM
CCc1c(O)cc(O)c(-c2cccc(OCc3ccccn3)c2)c1CCOCC(O)CO (stereo not drawn) [Compound 190, 5-[2-(2,3-Dihydroxypropoxy)ethyl]-6-ethyl-4-[3-(pyridin-2-ylmethyloxy)phenyl]benzene-1,3-diol] | – | ≤ 50 µM
CCc1c(O)cc(O)c(-c2cccc(OCc3cccnc3)c2)c1CCOCC(O)CO (stereo not drawn) [Compound 191, 5-[2-(2,3-Dihydroxypropoxy)ethyl]-6-ethyl-4-[3-(pyridin-3-ylmethyloxy)phenyl]benzene-1,3-diol] | – | ≤ 50 µM
CCc1c(O)cc(O)c(-c2cccc(OCc3ccncc3)c2)c1CCOCC(O)CO (stereo not drawn) [Compound 192, 5-[2-(2,3-Dihydroxypropoxy)ethyl]-6-ethyl-4-[3-(pyridin-4-ylmethyloxy)phenyl]benzene-1,3-diol] | – | ≤ 50 µM
CCc1c(O)cc(O)c(-c2cccc(OCc3csc(C)n3)c2)c1CCOCC(O)CO (stereo not drawn) [Compound 193, 5-[2-(2,3-Dihydroxypropoxy)ethyl]-6-ethyl-4-[3-(2-methyl-1,3-thiazol-4-ylmethyloxy)phenyl]benzene-1,3-diol] | – | ≤ 50 µM
CCc1c(O)cc(O)c(-c2cccc(OCCO)c2)c1CCOCC(O)CO (stereo not drawn) [Compound 194, 5-[2-(2,3-Dihydroxypropoxy)ethyl]-6-ethyl-4-[3-(2-hydroxyethoxy)phenyl]benzene-1,3-diol] | – | ≤ 50 µM
CCc1c(O)cc(O)c(-c2cccc(OCCN3CCOCC3)c2)c1CCOCC(O)CO (stereo not drawn) [Compound 195, 5-[2-(2,3-Dihydroxypropoxy)ethyl]-6-ethyl-4-[3-(2-morpholinoethoxy)phenyl]benzene-1,3-diol] | ≤ 50 µM | –
CCc1c(O)cc(O)c(-c2cccc(OCCN3CCCC3=O)c2)c1CCOCC(O)CO (stereo not drawn) [Compound 196, 5-[2-(2,3-Dihydroxypropoxy)ethyl]-6-ethyl-4-{3-[2-(2-oxopyrrolidin-1-yl)ethoxy]phenyl}benzene-1,3-diol] | ≤ 50 µM | –
CCc1c(O)cc(O)c(-c2cccc(N)c2)c1CCOCC(O)CO (stereo not drawn) [Compound 197, 4-(3-Aminophenyl)-5-[2-(2,3-dihydroxypropoxy)ethyl]-6-ethylbenzene-1,3-diol] | ≤ 50 µM | –
CCc1c(O)cc(O)c(-c2ccccc2)c1CC(O)(CCCO)CCCO [Compound 199, 6-Ethyl-5-[2,5-dihydroxy-2-(3-hydroxypropyl)pentyl]-4-phenylbenzene-1,3-diol] | ≤ 50 µM | –
CCc1c(O)cc(O)c(-c2ccccc2)c1Cc1ocnc1C(=O)OC [Compound 200, Methyl 5-[(2-ethyl-3,5-dihydroxy-6-phenylphenyl)methyl]-1,3-oxazole-4-carboxylate] | ≤ 50 µM | –
CCc1c(O)cc(O)c(-c2cccc(NS(C)(=O)=O)c2)c1CCOCC(O)CO (stereo not drawn) [Compound 202, 6-Ethyl-5-[2-(2,3-dihydroxypropoxy)ethyl]-4-{3-[N-(methylsulfonyl)amino]phenyl}benzene-1,3-diol] | ≤ 50 µM | –
CCc1c(O)cc(O)c(-c2cccc(NS(=O)(=O)c3ccc(C)cc3)c2)c1CCOCC(O)CO (stereo not drawn) [Compound 203, 5-[2-(2,3-Dihydroxypropoxy)ethyl]-6-ethyl-4-{3-[N-(4-tolylsulfonyl)amino]phenyl}benzene-1,3-diol] | ≤ 50 µM | –
CCc1c(O)cc(O)c(-c2cccc(NC(C)=O)c2)c1CCOCC(O)CO (stereo not drawn) [Compound 204, 4-[3-(N-acetylamino)phenyl]-5-[2-(2,3-dihydroxypropoxy)ethyl]-6-ethylbenzene-1,3-diol] | ≤ 50 µM | –
CCc1c(O)cc(O)c(-c2cccc(NC(=O)c3ccccc3)c2)c1CCOCC(O)CO (stereo not drawn) [Compound 205, 4-[3-(N-benzoylamino)phenyl]-5-[2-(2,3-dihydroxypropoxy)ethyl]-6-ethylbenzene-1,3-diol] | ≤ 50 µM | –
CCOC(=O)CCc1ccc(-c2c(O)cc(O)cc2COCc2ccccc2)o1 [Compound 236, Ethyl 3-{5-[6-(benzyloxymethyl)-2,4-dihydroxyphenyl]furan-2-yl}propanoate] | – | ≤ 50 µM
COC(=O)CCc1ccc(-c2c(O)cc(O)cc2C(OC)c2ccccc2)o1 (stereo not drawn) [Compound 237, Methyl 3-{5-[2,4-dihydroxy-6-(1-methoxy-1-phenylmethyl)phenyl]furan-2-yl}propanoate] | – | ≤ 50 µM
CCN(CC)C(=O)Cc1c(Br)c(O)cc(O)c1-c1ccco1 [Compound 241, 2-[2-Bromo-6-(furan-2-yl)-3,5-dihydroxyphenyl]-N,N-diethylacetamide] | – | ≤ 50 µM
COc1cc(NC(=O)Cc2c(Br)c(O)cc(O)c2-c2ccco2)cc(OC)c1 [Compound 242, 2-[2-Bromo-6-(furan-2-yl)-3,5-dihydroxyphenyl]-N-(3,5-dimethoxyphenyl)acetamide] | – | ≤ 50 µM

Results, then the compound that gave them:

GI50 [1] | GI50 [2] | Structure (SMILES)
– | ≤ 50 µM | COCCc1c(Br)c(O)cc(O)c1-c1ccco1 [Compound 243, 6-Bromo-4-(furan-2-yl)-5-(2-methoxyethyl)benzene-1,3-diol]
– | ≤ 50 µM | CCc1c(O)cc(O)c(-c2ccco2)c1CCOC [Compound 244, 6-Ethyl-4-(furan-2-yl)-5-(2-methoxyethyl)benzene-1,3-diol]
– | ≤ 50 µM | CCc1c(O)cc(O)c(-c2ccco2)c1CC(=O)N(C)CCOC [Compound 257, 2-[2-Ethyl-6-(furan-2-yl)-3,5-dihydroxyphenyl]-N-(2-methoxyethyl)-N-methylacetamide]
– | ≤ 50 µM | COC(=O)CCc1ccc(-c2c(O)cc(O)cc2CC(=O)OC)o1 [Compound 260, Methyl 3-{5-[2,4-dihydroxy-6-(methoxycarbonylmethyl)phenyl]furan-2-yl}propanoate]
– | ≤ 50 µM | COC(=O)CCc1ccc(-c2c(O)cc(O)c(Br)c2CC(=O)OC)o1 [Compound 267, Methyl 3-{5-[5-bromo-2,4-dihydroxy-6-(methoxycarbonylmethyl)phenyl]furan-2-yl}propanoate]
– | ≤ 50 µM | COC(=O)Cc1cc(O)cc(O)c1-c1ccc2c(c1)OCO2 [Compound 273, Methyl 2-(1,3-benzodioxolan-5-yl)-3,5-dihydroxyphenylacetate]
– | ≤ 50 µM | CCc1cc(-c2n[nH]c3ccc([N+](=O)[O-])cc23)c(O)cc1O [Compound 277, 6-Ethyl-4-(5-nitro-1H-indazol-3-yl)benzene-1,3-diol]
– | ≤ 50 µM | CCc1cc(-c2nc3ccccc3[nH]2)c(O)cc1O [Compound 278, 4-Benzimidazol-2-yl-6-ethylbenzene-1,3-diol]
– | ≤ 50 µM | CCc1cc(-c2nc3ccccc3n2-c2ccccc2)c(O)cc1O [Compound 279, 6-Ethyl-4-(1-phenylbenzimidazol-2-yl)benzene-1,3-diol]
– | ≤ 50 µM | CCc1c(O)cc(O)c(-c2ncc(-c3ccccc3)o2)c1CC(=O)OC [Compound 329, Methyl 2-ethyl-3,5-dihydroxy-6-(5-phenyl-1,3-oxazol-2-yl)phenylacetate]
– | ≤ 50 µM | CCc1c(O)cc(O)c(-c2n[nH]c3cc(OC)ccc23)c1CCOCC(O)CO (stereo not drawn) [Compound 330, 5-[2-(2,3-Dihydroxypropoxy)ethyl]-6-ethyl-4-(6-methoxy-1H-indazol-3-yl)benzene-1,3-diol]
